{"source": "patent US10702518B2", "about": "“TAF1 inhibitors for the therapy of cancer” (CeMM—Forschungszentrum für Molekulare Medizin GmbH, priority 2016, dated 2020)", "key": {"BRD4 (BD1)": {"biological_target": "T1, BRD4 (BD1) (Homo sapiens, UniProt O60885)", "T1 construct": "AlphaLISA assays for the first (black columns, BD1) and the second (grey columns, BD2) bromodomains of BRD4", "experiment": "AlphaLISA, first bromodomain of BRD4", "assay_type": "binding", "settings": "10 μM", "text": "(§4) The Amplified Luminescent Proximity Homogenous Assay (AlphaLISA©) is the homogenous and chemiluminescence-based method, used to explore the direct interaction of the identified small molecules with BRD4 and therefore, measure the IC50 values of the direct BRD4 inhibitors.\n(§5) Briefly, in this assay, the biotinylated histone peptide substrate is captured by streptavidin-coupled donor beads. The GST-tagged bromodomain is recognized and bound by an anti-GST antibody conjugated with an acceptor bead. In absence of an inhibitor, the bromodomain binds to histone peptide substrate. […] The event of a signal (alpha count) can only take place when the interaction partners are in proximity (<200 nm).\n(§6) The AlphaLISA was performed for both bromodomains of BRD4 using the BRD4 (BD1) Inhibitor Screening Kit (BPS Bioscience) and BRD4 (BD2) Inhibitor Screening Kit (BPS Bioscience) following the manufacturer's protocol. For the GST full length BRD4 purified from BL21 cells, a mixture of acetylated substrates from the BD1 and BD2 Inhibitor Screening Kit reported above was used.\n(§7) Compounds were tested at a final assay concentration of 10 μM in duplicates. […] Reaction was initiated by adding one of the two bromodomains (BD1 or BD2) or the GST full length BRD4. […]"}, "BRD4 (BD2)": {"biological_target": "T2, BRD4 (BD2) (Homo sapiens, UniProt O60885)", "T2 construct": "AlphaLISA assays for the first (black columns, BD1) and the second (grey columns, BD2) bromodomains of BRD4", "experiment": "AlphaLISA, second bromodomain of BRD4", "assay_type": "binding", "settings": "10 μM", "text": "as §4, §5, §6, §7"}, "TAF1 (2)": {"biological_target": "T3, TAF1 (2) (Homo sapiens, UniProt P21675)", "T3 construct": "the second bromodomain of TAF1 (TAF1 (2)); purchased DiscoverX Corporation (contract assay); host or cells: T7 phage in E. coli host derived from BL21", "T3 sequence (P21675 1519-1628 limits assumed)": "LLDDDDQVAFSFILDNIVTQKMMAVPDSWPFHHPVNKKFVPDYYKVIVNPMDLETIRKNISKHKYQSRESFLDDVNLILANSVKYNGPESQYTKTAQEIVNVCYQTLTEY", "experiment": "BromoScan / BromoELECT / BromoKdELECT, TAF1 (2)", "assay_type": "binding", "method": "(§1) Bubbles indicate the percentage of inhibition of the binding of the analyzed bromodomains to an acetylated substrate. […] (g) BromoKdELECT assay for CeMMEC1 against TAF1 (2). […] (i) Docking of CeMMEC1 to the second bromodomain of TAF1. 3D model (top panel) and 2D ligand interaction diagram (bottom panel). Red dots in the 3D model indicate water molecules.\n(§2) (c) not used (d) KinomeScan profile for CeMMEC1 (10 μM). Bubbles indicate the percentage of inhibition of the binding of the analyzed kinase to an immobilized ligand."}, "BRD4": {"biological_target": "BRD4 (Homo sapiens, UniProt O60885)", "experiment": "BromoScan profile, BRD4", "assay_type": "binding", "settings": "10 μM", "from_the_text": "as §1"}, "CREBBP": {"biological_target": "CREBBP (Homo sapiens, UniProt Q92793)", "sequence (Q92793 1085-1192 limits assumed)": "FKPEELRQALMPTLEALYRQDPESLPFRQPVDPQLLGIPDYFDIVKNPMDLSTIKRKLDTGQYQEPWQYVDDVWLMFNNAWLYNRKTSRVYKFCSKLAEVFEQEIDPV", "experiment": "BromoScan / BromoELECT / BromoKdELECT, CREBBP", "assay_type": "binding", "method": "as §1, §2"}, "EP300": {"biological_target": "T4, EP300 (Homo sapiens, UniProt Q09472)", "T4 sequence (Q09472 1049-1156 limits assumed)": "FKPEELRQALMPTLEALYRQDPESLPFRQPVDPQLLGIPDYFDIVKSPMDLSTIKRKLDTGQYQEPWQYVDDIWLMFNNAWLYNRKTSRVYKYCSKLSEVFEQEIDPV", "experiment": "BromoScan / BromoKdELECT, EP300", "assay_type": "binding", "method": "as §1, §2"}, "BRD9": {"biological_target": "T5, BRD9 (Homo sapiens, UniProt Q9H8M2)", "T5 sequence (Q9H8M2 136-240 limits assumed)": "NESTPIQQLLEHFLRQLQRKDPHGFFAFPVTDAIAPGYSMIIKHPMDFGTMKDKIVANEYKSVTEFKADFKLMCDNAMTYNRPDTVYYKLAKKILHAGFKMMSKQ", "experiment": "BromoScan / BromoKdELECT, BRD9", "assay_type": "binding", "method": "as §1, §2"}, "[1]": {"test_system": "97 representative kinases", "experiment": "KinomeScan profile", "assay_type": "binding", "settings": "10 μM; 97 kinases", "method": "(§3) . The assay was done in duplicate (mean±STD); (b) BromoKdELECT assay for CeMMEC1 against TAF1 (2), BRD9, CREBBP and EP300 bromodomains (11 dilutions, from 10 to 0.017 μM). (c) not used (d) KinomeScan profile for CeMMEC1 (10 μM). Bubbles indicate the percentage of inhibition of the binding of the analyzed kinase to an immobilized ligand. (e) BromoELECT assay for CeMMEC1 and analogs A1, A2, 05, 10, 13, 24, 25, 26, 27, 29, 33 and 39 (10 μM) against BRD4 (1), BRD4 (2), BRD9, CREBBP, EP300 and TAF1 (2). (f, g) Docking poses of analog 30 to TAF1 (green) and BRD4 (magenta). (h) Docking of compound 29 to TAF1, no suitable pose could be identified for BRD4. (i) BromoELECT assay for analog 29 (10 μM) against BRD4 (1), BRD9, CREBBP, EP300 and TAF1 (2)."}, "TAF1": {"biological_target": "T6, TAF1 (Homo sapiens, UniProt P21675)", "T6 construct": "TAF1 second bromodomain (Uniprot P21675, residues 1501-1634); made in house; host or cells: E. coli BL21 (DE3)-R3-pRARE2 (stated for the His-tagged construct)", "T6 sequence (P21675 1501-1634)": "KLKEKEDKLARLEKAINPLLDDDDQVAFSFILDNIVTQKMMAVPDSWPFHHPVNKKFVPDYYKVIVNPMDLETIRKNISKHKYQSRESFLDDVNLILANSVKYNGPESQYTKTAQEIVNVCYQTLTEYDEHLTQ", "experiment": "TAF1 binding assay (FRET/HTRF peptide displacement)", "settings": "FRET analysis, data not shown", "method": "TAF1 binding assays were conducted using the EPIgeneous™ Binding Domain kit B (Cisbio Bioassays) according to manufacturer's instructions. Binding was determined by the displacement of an acetylated biotin-peptide from a GST tagged TAF1 protein using HTRF with a Eu3+ conjugated GST antibody donor and streptavidin conjugated acceptor. Compounds were dispensed into assay plates, ProxiPlate-384 Plus (Perkin Elmer) using an Echo 525 Liquid Handler (Labcyte). Binding assays were conducted in a final volume of 20 μl with 5 nM TAF1-GST, 50 nM peptide (SGRGK (ac)GGK (ac)GLGK (ac)GGAK (ac)RHRK (biotin)-acid), 6.25 nM Streptavidin-XL665, 1:200 Anti-GST-Eu3+ cryptate and 0.1% DMSO. Assay reagents were dispensed into plates using a Multidrop combi (Thermo Scientific) and incubated at room temperature for 3 hours. Fluorescence was measured using a PHERAstar microplate reader (BMG) using the HTRF module with dual emission protocol (A=ex. 320 nm em. 665 nm, B=ex. 320 nm em. 620 nm). Raw data were processed to give an HTRF ratio (channel A/B*10000), which was used to generate IC50 curves."}, "REDS3 cells": {"test_system": "REDS3 cells", "experiment": "RFP reporter expression in REDS3 cells (live cell imaging)", "assay_type": "cell-based, human", "settings": "for RFP expression in REDS3 cells: single agent", "method": "Cells were seeded on clear flat bottom 96-well or 384-well plates (Corning) and treated with the indicated compounds for the specified conditions. Live cell imaging pictures were taken with the Operetta High Content Screening System (PerkinElmer), 20× objective and non-confocal mode.\nOnly RFP-positive nuclei were detected and counted.\nThe increase of RFP fluorescence, detected with the Operetta High Content Screening System (PerkinElmer), 20× objective and non-confocal mode, was used as read-out.\nBriefly, the screening was divided in three parts called respectively 1) primary screening, 2) follow up and 3) validation. During the primary screening REDS3 cells were treated with 10 μM of every compound, and live cell imaging pictures were taken in order to assess their ability to induce RFP expression 24 hours later."}, "[2]": {"test_system": "c-MYC expression in WT-KBM7", "experiment": "c-MYC expression by RT-PCR in WT-KBM7", "assay_type": "cell-based, human", "settings": "1, 10 and 20 μM, 24 hours", "experimental": "(c) Percentage of c-MYC expression in WT-KBM7 treated with the selected compounds, assessed by RT-PCR. 1, 10 and 20 μM of each compound were used to treat cells for 24 hours; DMSO was used as negative control and (S)-JQ1 as positive control. Three biological replicates were performed (mean±STD).\nRNA extraction was performed with TRIzol Reagent (Life Technologies) according to the manufacturer's protocol and Reverse Transcription (RT) was performed using the High Capacity cDNA Reverse Transcription Kit (Applied Biosystems) following the standard protocol.\nQPCR was performed using the Power SYBR Green Master mix (Invitrogen) as described in the manufacturer's protocol.\nReal-time amplification results were normalized to the endogenous housekeeping genes Actin or GAPDH. The relative quantities were calculated using the comparative CT (Cycle Threshold) Method (ΔΔCT Method)."}, "THP1 cells [3]": {"test_system": "THP1 cells", "experiment": "Cell viability of THP1 cells, combination with (S)-JQ1", "assay_type": "cell-based, human"}, "H23 cells": {"test_system": "H23 cells", "experiment": "Cell viability of H23 cells, combination with (S)-JQ1", "assay_type": "cell-based"}, "THP1 cells [4]": {"test_system": "THP1 cells", "experiment": "Cell cycle assay in THP1 cells", "settings": "48 hours", "experimental": "(e) Quantification of cells in S-phase by staining the nuclei with PI and analyzing DNA content by FACS. […] Three different biological replicates were performed and 30,000 cells were analysed each time (mean±STD).\nFor cell cycle analysis, cells were fixed with 70% ethanol for 24 hours, washed with PBS/0.1%-Tween and incubated with RNase for 20 minutes. Nuclei were stained with 5 μg/ml PI (propidium iodide, Sigma) for 10 minutes prior to FACS analysis (BD FACSCalibur Flow Cytometer)."}, "THP1 cells [5]": {"test_system": "THP1 cells", "experiment": "AnnexinV apoptosis assay in THP1 cells", "settings": "72 hours", "experimental": "(f) Quantification of AnnexinV positive cells from immunofluorescence images. […] At least 3 biological replicates were performed and more than 1,500 cells were quantified for each point (mean±STD).\nApoptotic cells were detected using the Annexin V-FITC Apoptosis detection kit (Abcam) according to the manufacturer's instruction. Apoptosis quantification was performed with the Harmony software (PerkinElmer) for nuclei and cytoplasm detection and analysis, adapted for the nucleus diameter range and cell shape of the specific cell line used."}, "KBM7 cells": {"test_system": "KBM7 cells", "experiment": "CellTiterGlo viability of control and TAF1 downregulated KBM7 cells", "settings": "shRNA TAF1 vs control, 96 hours"}, "[6]": {"test_system": "bromodomains of BRD4 (1), BRD4 (2), BRD9, CREBBP, EP300 and TAF1 (2)", "experiment": "BromoELECT bromodomain panel", "assay_type": "binding", "settings": "10 μM", "method": "as §3"}}, "note": "Entries after “also recorded” stand apart in the source; their conditions may differ."}
{"smiles": "Cn1cc(C(=O)Nc2ccc3c(c2)OCCO3)c2ccccc2c1=O", "note": "[CeMMEC1]", "values": [{"measurement": "binding to the first bromodomain of BRD4", "setting": "BRD4 (BD1)", "value": "neither able to bind the first nor the second bromodomain of BRD4"}, {"measurement": "binding to the second bromodomain of BRD4", "setting": "BRD4 (BD2)", "value": "neither able to bind the first nor the second bromodomain of BRD4"}, {"measurement": "binding constant, TAF1 (2)", "setting": "TAF1 (2); BromoKdELECT (FIG. 8b)", "value": "sub-micromolar binding constants"}, {"measurement": "Kd", "setting": "TAF1 (2); BromoKdELECT assay (FIG. 4g)", "value": 1400, "unit": "nM"}, {"measurement": "binding to TAF1 (2)", "setting": "TAF1 (2); BromoScan/BromoELECT, 10 μM", "value": "high affinity"}, {"measurement": "binding to BRD4", "setting": "BRD4", "value": "only bound BRD4 very weakly"}, {"measurement": "binding constant, CREBBP", "setting": "CREBBP; BromoKdELECT (FIG. 8b)", "value": "sub-micromolar binding constants"}, {"measurement": "binding to CREBBP", "setting": "CREBBP; BromoScan/BromoELECT, 10 μM", "value": "high affinity"}, {"measurement": "binding constant, EP300", "setting": "EP300; BromoKdELECT (FIG. 8b)", "value": "sub-micromolar binding constants"}, {"measurement": "binding to EP300", "setting": "EP300; BromoScan, 10 μM", "value": "high affinity"}, {"measurement": "binding constant, BRD9", "setting": "BRD9; BromoKdELECT (FIG. 8b)", "value": "sub-micromolar binding constants"}, {"measurement": "binding to BRD9", "setting": "BRD9; BromoScan, 10 μM", "value": "high affinity"}, {"measurement": "inhibition of kinases", "setting": "[1]", "value": "≤ 60", "unit": "%"}, {"measurement": "displacement of tetra-acetylated H4 peptide from TAF1 binding site", "setting": "TAF1", "value": "displaced a tetra-acetylated H4 peptide with good efficacy"}, {"measurement": "RFP expression in REDS3 cells in combination with (S)-JQ1", "setting": "REDS3 cells", "value": "further boosted RFP expression beyond the increase in single treatments"}, {"measurement": "RFP expression in REDS3 cells", "setting": "REDS3 cells", "value": "expressed RFP detected by live cell imaging in a dose-dependent manner; also recorded: comparable induction of RFP expression in REDS3 cells"}, {"measurement": "c-MYC expression", "setting": "[2]", "value": "capable of reducing the expression of this oncogene in a dose-dependent manner"}, {"measurement": "cell viability, combination with (S)-JQ1", "setting": "THP1 cells [3]", "value": "more efficiently impairing cell viability than the individual treatments"}, {"measurement": "synergy with (S)-JQ1 (Bliss independence test)", "setting": "THP1 cells [3]", "value": "confirmed the synergism"}, {"measurement": "cell viability, combination with (S)-JQ1", "setting": "H23 cells", "value": "more efficiently impairing cell viability than the individual treatments"}, {"measurement": "synergy with (S)-JQ1 (Bliss independence test)", "setting": "H23 cells", "value": "confirmed the synergism"}, {"measurement": "number of cells in S-phase", "setting": "THP1 cells [4]", "value": "clear and dose-dependent decrease of the number of cells in S-phase"}, {"measurement": "apoptosis (AnnexinV staining)", "setting": "THP1 cells [5]", "value": "induced apoptosis"}, {"measurement": "cell viability with TAF1 downregulation", "setting": "KBM7 cells", "value": "impaired cell viability in TAF1 downregulated cells"}]}
{"smiles": "Cn1cc(C(=O)Nc2ccc3c(c2)OCCO3)c(=O)n(C)c1=O", "note": "[Compound 32]", "values": [{"measurement": "binding to the tested bromodomain proteins", "setting": "[6]", "value": "bound neither of the tested bromodomain proteins"}, {"measurement": "RFP expression in REDS3 cells in combination with (S)-JQ1", "setting": "REDS3 cells", "value": "The same effect was not achieved"}, {"measurement": "RFP expression in REDS3 cells", "setting": "REDS3 cells", "value": "nor did they induce RFP expression in REDS3 cells"}]}
{"smiles": "Cn1cc(C(=O)Nc2ccc3c(c2)OCCO3)c(=O)[nH]c1=O", "note": "[Compound 35]", "values": [{"measurement": "binding to the tested bromodomain proteins", "setting": "[6]", "value": "bound neither of the tested bromodomain proteins"}, {"measurement": "RFP expression in REDS3 cells in combination with (S)-JQ1", "setting": "REDS3 cells", "value": "The same effect was not achieved"}, {"measurement": "RFP expression in REDS3 cells", "setting": "REDS3 cells", "value": "nor did they induce RFP expression in REDS3 cells"}]}
